The record followed here is patent US20090042963A1 (priority 2005, published 2009).

This assay relates to Pyricularia oryzae. Type of assay: cell-based. The following applies: single active compound, Conc. 1 ppm; microtiter plate, malt-based medium, 18° C., measured at 405 nm on day 7 after inoculation.

For the molecule `Fc1ccc(C2(Cn3cncn3)OC2c2ccccc2Cl)cc1` (centres unmarked) [Epoxiconazole, epoxiconazole], the “Observed effect (%)” value is on record as 0%.

`CC(C)(C)C(O)(CCc1ccc(Cl)cc1)Cn1cncn1` (centres unmarked) [Tebuconazole, tebuconazole]: the “Observed effect (%)” value is reported as 2%.
